Results from publication PMC2778273 (Biochimica et biophysica acta, 2008).
Values after ≈ are worked out from the molar mass of the structure shown.

Molecular target: Clitocybe nebularis lectin (CNL) (Clitocybe nebularis, UniProt B2ZRS9)
Test: hemagglutination inhibition assay, human group A erythrocytes
Conditions: CNL 18.6 µg/ml; 20 mM Tris/HCl, 130 mM NaCl, pH 7.5; room temperature

Sequence of Clitocybe nebularis lectin (CNL) (B2ZRS9 2-149): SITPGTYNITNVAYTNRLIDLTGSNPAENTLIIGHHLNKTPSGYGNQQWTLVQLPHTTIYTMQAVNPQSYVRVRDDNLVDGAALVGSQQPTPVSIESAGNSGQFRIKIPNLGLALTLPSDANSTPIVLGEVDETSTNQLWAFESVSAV

OC[C@H]1O[C@@H](O[C@H]2[C@H](O)[C@@H](O)C(O)O[C@@H]2CO)[C@H](O)[C@@H](O)[C@H]1O (stereo partly shown) [lactose]
minimum inhibitory concentration: 4.65 mM (≈ 1590 µg/mL)
